{"source": "patent US9585871B2", "about": "“Method for treating and curing leishmaniosis using fexinidazole” (Merial Limited, priority 2013, dated 2017)", "assay_type_in_all_cases": "in vivo", "key": {"L. infantum [1]": {"test_system": "L. infantum", "test": "Clinical study in dogs infected with L. infantum: Clinical Score", "set-up": "key: additive score of clinical signs (body condition, lymphadenopathy, etc.)", "details": "Glucantime 100 mg/kg dNMA SC or Fexinidazole 60 mg/kg PO once daily Days 0-27", "experimental": "(§1) In a clinical study, dogs infected with L. infantum were treated with meglumine antimoniate (GLUCANTIME®, Merial) as a positive control, or FEX (Table 5). Eight blocks of two animals were formed based antibody titers and biological scores. Six dogs in each group were naturally infected by housing them in an endemic area for two years and two dogs in each group were artificially infected by intravenous administration of a known quantity of parasites recovered from the spleen of an infected dog.\n(§2) The first group (FEX) was compared to the second group, which was treated with 27 mg/kg GLUCANTIME (meglumine antimoniate, or 100 mg/kg of dNMA) “GLU”), over 28 days.\n(§3) Variables. The Clinical Score is an additive score of various clinical signs (body condition, lymphadenopathy, splenomegaly, appetite, behavior, mucous membrane color, dermatopathology, ocular signs, digestive signs, arthropathy) evaluated before treatment and on Days 7, 14, 21, 28, 57, 184, 219, 254, 282, 310, 345, 400 and 436. The Overall Biological Score is an additive score based on the severity of changes in hematology/chemistry values (creatinine, urine protein/creatinine, Hct, globulin, ALAT), evaluated pretreatment and on Days 28, 57, and 181. The L. infantum immunofluorescent antibody titers (IFAT) were determined from samples collected before treatment and on Days 28, 57, and 181. Finally, quantitative PCR (qPCR) for L. infantum was conducted on spleen aspirates collected before treatment and on Days 28, 57, 142, 184, and 373."}, "L. infantum [2]": {"test_system": "L. infantum", "test": "Clinical study in dogs infected with L. infantum: overall outcome (cure, relapse, removal of animals)", "experimental": "as §1\nThe first group (FEX) was compared to the second group, which was treated with 27 mg/kg GLUCANTIME (meglumine antimoniate, or 100 mg/kg of dNMA) “GLU”), over 28 days. […]"}, "L. infantum [3]": {"test_system": "L. infantum", "test": "Clinical study in dogs infected with L. infantum: qPCR on spleen aspirates", "details": "spleen aspirate, Glucantime 100 mg/kg dNMA SC or Fexinidazole 60 mg/kg PO once daily Days 0-27", "experimental": "as §1, §2, §3"}, "L. infantum [4]": {"test_system": "L. infantum", "test": "Clinical study in dogs infected with L. infantum: Overall Biological Score", "set-up": "key: additive score of severity of hematology/chemistry changes", "details": "Glucantime 100 mg/kg dNMA SC or Fexinidazole 60 mg/kg PO once daily Days 0-27", "experimental": "as §1, §2, §3"}, "[5]": {"details": "Day −7 (before treatment), individual dogs"}}, "note": "Several values for one entry are separate records, joined by “and”; a condition that tells them apart may be missing. Equal values may be shown once.", "data": [{"substance": "meglumine antimoniate [Glucantime]", "values": [{"measurement": "Clinical Score, group average", "setting": "L. infantum [1]; Day 7", "result": 1.3}, {"measurement": "Clinical Score, group average", "setting": "L. infantum [1]; Day 14", "result": 1.1}, {"measurement": "Clinical Score, group average", "setting": "L. infantum [1]; Day 21", "result": 2.1}, {"measurement": "Clinical Score", "setting": "L. infantum [1]; Day 28, individual dogs", "result": 0}, {"measurement": "Clinical Score, group average", "setting": "L. infantum [1]; Day 28, Group 1 includes D21 data of Block 3 dog carried forward", "result": 1.33}, {"measurement": "Clinical Score", "setting": "L. infantum [1]; Day 57, individual dogs", "result": 0}, {"measurement": "Clinical Score, group average", "setting": "L. infantum [1]; Day 57, Group 1 includes D21 data of Block 3 dog carried forward", "result": 1.33}, {"measurement": "Clinical Score", "setting": "L. infantum [1]; Day 184, individual dogs", "result": 0}, {"measurement": "Clinical Score, group average", "setting": "L. infantum [1]; Day 184", "result": 0.0}, {"measurement": "Clinical Score", "setting": "L. infantum [1]; Day 219, individual dogs", "result": 0}, {"measurement": "Clinical Score, group average", "setting": "L. infantum [1]; Day 219", "result": 0.0}, {"measurement": "Clinical Score", "setting": "L. infantum [1]; Day 254, individual dogs", "result": "3 and 0 (2×)"}, {"measurement": "Clinical Score, group average", "setting": "L. infantum [1]; Day 254", "result": 1.0}, {"measurement": "Clinical Score", "setting": "L. infantum [1]; Day 282, individual dogs", "result": "3 and 0 (2×)"}, {"measurement": "Clinical Score, group average", "setting": "L. infantum [1]; Day 282", "result": 1.0}, {"measurement": "Clinical Score", "setting": "L. infantum [1]; Day 310, individual dogs", "result": "2 and 0 (2×)"}, {"measurement": "Clinical Score, group average", "setting": "L. infantum [1]; Day 310", "result": 0.7}, {"measurement": "Clinical Score", "setting": "L. infantum [1]; Day 345, individual dogs", "result": 0}, {"measurement": "Clinical Score, group average", "setting": "L. infantum [1]; Day 345", "result": 0.0}, {"measurement": "Clinical Score", "setting": "L. infantum [1]; Day 400, individual dogs", "result": "1 and 0 (2×)"}, {"measurement": "Clinical Score, group average", "setting": "L. infantum [1]; Day 400", "result": 0.3}, {"measurement": "Clinical Score", "setting": "L. infantum [1]; Day 436, individual dogs", "result": "4 and 0 (2×)"}, {"measurement": "Clinical Score, group average", "setting": "L. infantum [1]; Day 436", "result": 1.3}, {"measurement": "Clinical Score", "setting": "L. infantum [1]; [5]", "result": "2 (3×) and 0 (4×) and 3"}, {"measurement": "Clinical Score, group average", "setting": "L. infantum [1]; Day −7 (before treatment)", "result": 1.1}, {"measurement": "removal of animal due to deterioration", "setting": "L. infantum [2]; Group 1 Block 3 dog, Glucantime 100 mg/kg dNMA SC once daily Days 0-27", "result": "^1Dog Group 1 Block 3 removed on Day 28 due to continued deterioration"}, {"measurement": "removal of animal due to toxicity", "setting": "L. infantum [2]; Group 1 Block 8 dog, Glucantime 100 mg/kg dNMA SC once daily", "result": "^2Dog Group 1 Block 8 removed on Day 20 due to GLUCANTIME toxicity"}, {"measurement": "removal of animals due to lack of efficacy", "setting": "L. infantum [2]; Group 1 Blocks 2, 4, 7 dogs, Glucantime 100 mg/kg dNMA SC once daily Days 0-27", "result": "^3Dogs Group 1 Blocks 2, 4, 7 removed after Day 184 due to lack of GLUCANTIME efficacy"}, {"measurement": "qPCR for L. infantum", "setting": "L. infantum [3]; Day 28, individual dogs", "result": "4.04 log copies/mL and 3.73 log copies/mL and 5.93 log copies/mL and 5.63^3 log copies/mL and BLOQ^1 (BLOQ = Below Level of Quantification = < log 3.64 copies/mL spleen aspirate) and 5.77 log copies/mL and 6.40^2 log copies/mL and 5.81 log copies/mL"}, {"measurement": "qPCR for L. infantum", "setting": "L. infantum [3]; Day 57, individual dogs", "result": "BLOQ (BLOQ = Below Level of Quantification = < log 3.64 copies/mL spleen aspirate) (3×) and 4.93 log copies/mL and 5.14 log copies/mL and 4.78 log copies/mL"}, {"measurement": "qPCR for L. infantum", "setting": "L. infantum [3]; Day 142, individual dogs", "result": "BLOQ (BLOQ = Below Level of Quantification = < log 3.64 copies/mL spleen aspirate) (3×) and 4.73 log copies/mL and 5.57 log copies/mL and 3.94 log copies/mL"}, {"measurement": "qPCR for L. infantum", "setting": "L. infantum [3]; Day 184, individual dogs", "result": "BLOQ (BLOQ = Below Level of Quantification = < log 3.64 copies/mL spleen aspirate) (2×) and 3.97 log copies/mL and 5.53 log copies/mL and 7.01 log copies/mL and 5.62 log copies/mL"}, {"measurement": "qPCR for L. infantum", "setting": "L. infantum [3]; Day 373, individual dogs", "result": "BLOQ (BLOQ = Below Level of Quantification = < log 3.64 copies/mL spleen aspirate) and 5.23 log copies/mL and 3.83 log copies/mL"}, {"measurement": "qPCR for L. infantum", "setting": "L. infantum [3]; [5]", "result": "5.81 log copies/mL and 4.38 log copies/mL and 6.40 log copies/mL and 5.10 log copies/mL and 5.12 log copies/mL and 6.87 log copies/mL and 6.17 log copies/mL and 6.70 log copies/mL"}, {"measurement": "Overall Biological Score", "setting": "L. infantum [4]; Day 28, individual dogs", "result": "2 (2×) and 1 and 4 and 3 (2×) and 2^1"}, {"measurement": "Overall Biological Score, group average", "setting": "L. infantum [4]; Day 28", "result": 2.4}, {"measurement": "Overall Biological Score", "setting": "L. infantum [4]; Day 57, individual dogs", "result": "1 (4×) and 4 (2×)"}, {"measurement": "Overall Biological Score, group average", "setting": "L. infantum [4]; Day 57, Group 1 includes D28 data of Block 3 dog carried forward", "result": "2.0^3"}, {"measurement": "Overall Biological Score", "setting": "L. infantum [4]; Day 181, individual dogs", "result": "3 (2×) and 2 (2×) and 0 and 6"}, {"measurement": "Overall Biological Score, group average", "setting": "L. infantum [4]; Day 181, Group 1 includes D28 data of Block 3 dog carried forward", "result": 2.7}, {"measurement": "Overall Biological Score", "setting": "L. infantum [4]; Day −14 (pretreatment), individual dogs", "result": "6 and 1 (2×) and 3 (2×) and 7 and 2 (2×)"}, {"measurement": "Overall Biological Score, group average", "setting": "L. infantum [4]; Day −14 (pretreatment)", "result": 3.1}]}]}
